Measured values from PubChem BioAssay AID248 (DTP/NCI, 2004).
Values joined by “and” are separate entries in the source; they are usually repeats but may differ in a detail not shown here. Equal values may be shown once. Inconclusive results and toxic doses are left out. Cut-off read from the data, not from the text of the source: active = T/C of 150% or more; inactive = T/C below 125%.

System: L1210 leukemia ip in BDF1 mice, survival T/C
Assay: NCI In Vivo Anticancer Drug Screen. Data for tumor model L1210 Leukemia (intraperitoneal) in B6D2F1 (BDF1) mice
Details: endpoint: mean survival time, higher = longer survival
Summary of the method: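 Transplanted-tumor mice were given test agent; controls received vehicle only. Survival readings from the two groups were divided (treated over control).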

[1] = dose: 100.0 mg/kg/injection, schedule: Q01DX001 (ip), vehicle: saline
[2] = dose: 200.0 mg/kg/injection, schedule: Q01DX001 (ip), vehicle: saline
[3] = dose: 400.0 mg/kg/injection, schedule: Q01DX001 (ip), vehicle: saline
[4] = dose: 100.0 mg/kg/injection, schedule: Q04DX003 (ip), vehicle: saline
[5] = dose: 12.5 mg/kg/injection, schedule: Q01DX009 (ip), vehicle: saline with Tween-80
[6] = dose: 25.0 mg/kg/injection, schedule: Q01DX009 (ip), vehicle: saline with Tween-80
[7] = dose: 100.0 mg/kg/injection, schedule: Q01DX001 (ip), vehicle: carboxymethylcellulose (CMC)
[8] = dose: 100.0 mg/kg/injection, schedule: Q04DX003 (ip), vehicle: saline with Tween-80
[9] = dose: 200.0 mg/kg/injection, schedule: Q01DX001 (ip), vehicle: carboxymethylcellulose (CMC)
[10] = dose: 400.0 mg/kg/injection, schedule: Q01DX001 (ip), vehicle: carboxymethylcellulose (CMC)
[11] = dose: 100.0 mg/kg/injection, schedule: Q04DX002 (ip), vehicle: Klucel (hydroxypropylcellulose) (HPC)
[12] = dose: 200.0 mg/kg/injection, schedule: Q04DX002 (ip), vehicle: Klucel (hydroxypropylcellulose) (HPC)
[13] = dose: 50.0 mg/kg/injection, schedule: Q04DX002 (ip), vehicle: Klucel (hydroxypropylcellulose) (HPC)

Measured: T/C

CC(=O)OCC1OC(OC(C)=O)C(NC(=O)N(C)c2ccccc2)C(OC(C)=O)C1OC(C)=O (stereo unspecified)
inactive: dose: 100.0 mg/kg/injection, schedule: Q04DX003 (ip), vehicle: Klucel (hydroxypropylcellulose) (HPC) 105 % of control | dose: 200.0 mg/kg/injection, schedule: Q04DX003 (ip), vehicle: Klucel (hydroxypropylcellulose) (HPC) 105 % of control | dose: 400.0 mg/kg/injection, schedule: Q04DX003 (ip), vehicle: Klucel (hydroxypropylcellulose) (HPC) 105 % of control

CC(C)N1CC(C)(C)N=C1C(C#N)c1cnc2ccccc2n1 (stereo unspecified)
inactive: [1] 98 % of control | [2] 94 % of control | [3] 94 % of control

COc1ccc(-c2nnc(Cl)o2)cc1
inactive: [4] 94 % of control

N#CCc1ccc(-c2ccccc2)cc1
inactive: [5] 103 % of control | [6] 95 % of control | dose: 50.0 mg/kg/injection, schedule: Q01DX009 (ip), vehicle: saline with Tween-80 94 % of control | dose: 50.0 mg/kg/injection, schedule: Q04DX003 (ip), vehicle: saline with Tween-80 97 % of control | [7] 100 % of control | [8] 93 % of control | [9] 100 % of control | [10] 93 % of control

OC(CNc1ccnc2cc(Cl)ccc12)CNC1CCCCC1 (stereo unspecified)
inactive: dose: 75.0 mg/kg/injection, schedule: Q01DX001 (ip), vehicle: other 97 % of control

O=[N+]([O-])c1ccc(S(=O)(=O)SC(F)(F)F)cc1
inactive: dose: 75.0 mg/kg/injection, schedule: Q01DX001 (ip), vehicle: saline 106 % of control | dose: 150.0 mg/kg/injection, schedule: Q01DX001 (ip), vehicle: saline 102 % of control

COc1ccc(C)cc1NC(=O)/C=C/c1ccccc1
inactive: [11] 100 % of control | [12] 100 % of control | dose: 400.0 mg/kg/injection, schedule: Q04DX002 (ip), vehicle: Klucel (hydroxypropylcellulose) (HPC) 100 % of control

O=C(CCl)Nc1ccccc1
inactive: [11] 89 % of control | [12] 92 % of control

O=C(COc1ccc(Cl)cc1Cl)Nc1ccc(NC(=O)COc2ccc(Cl)cc2Cl)cc1
inactive: dose: 12.5 mg/kg/injection, schedule: Q01DX009 (ip), vehicle: Klucel (hydroxypropylcellulose) (HPC) 87 % of control | dose: 12.5 mg/kg/injection, schedule: Q04DX002 (ip), vehicle: Klucel (hydroxypropylcellulose) (HPC) 95 % of control | dose: 25.0 mg/kg/injection, schedule: Q01DX009 (ip), vehicle: Klucel (hydroxypropylcellulose) (HPC) 94 % of control | dose: 25.0 mg/kg/injection, schedule: Q04DX002 (ip), vehicle: Klucel (hydroxypropylcellulose) (HPC) 95 % of control | dose: 50.0 mg/kg/injection, schedule: Q01DX009 (ip), vehicle: Klucel (hydroxypropylcellulose) (HPC) 87 % of control | [13] 92 % of control

C=CN(C=C)P(=O)(C1C(=O)C(C(=O)OCC)C(c2ccc(OC(C)=O)cc2)C(C(=O)OCC)C1=O)C1C(=O)C(C(=O)OCC)C(c2ccc(OC(C)=O)cc2)C(C(=O)OCC)C1=O (stereo unspecified)
inactive: [8] 97 % of control | dose: 200.0 mg/kg/injection, schedule: Q04DX003 (ip), vehicle: saline with Tween-80 96 % of control | dose: 400.0 mg/kg/injection, schedule: Q04DX003 (ip), vehicle: saline with Tween-80 100 % of control

CC1CC(=O)c2c(cc3c(-c4c(O)cc(O)c5c(O)c6c(cc45)OC(C)CC6=O)c(O)cc(O)c3c2O)O1 (stereo unspecified)
inactive: dose: 100.0 mg/kg/injection, schedule: Q04DX003 (ip), vehicle: carboxymethylcellulose (CMC) 103 % of control | dose: 200.0 mg/kg/injection, schedule: Q04DX003 (ip), vehicle: carboxymethylcellulose (CMC) 92 % of control

C/C(=N\NC(N)=O)C1=C(O)C(C(C)C)NC1=O (stereo unspecified)
inactive: dose: 50.0 mg/kg/injection, schedule: Q01DX001 (ip), vehicle: carboxymethylcellulose (CMC) 101 % of control | [7] 106 % of control | [9] 103 % of control | [10] 109 % of control

Cn1c(CCN=C(N)CSS(=O)(=O)O)nc2ccccc21
inactive: [13] 91 % of control | [11] 105 % of control | [12] 105 % of control and 112 % of control

BrCCN1CCCCC1
inactive: dose: 1.56 mg/kg/injection, schedule: Q01DX009 (ip), vehicle: saline 104 % of control and 115 % of control | dose: 3.13 mg/kg/injection, schedule: Q01DX009 (ip), vehicle: saline 104 % of control and 112 % of control | dose: 6.25 mg/kg/injection, schedule: Q01DX009 (ip), vehicle: saline 101 % of control and 102 % of control | dose: 12.5 mg/kg/injection, schedule: Q01DX001 (ip), vehicle: saline 108 % of control | dose: 12.5 mg/kg/injection, schedule: Q04DX002 (ip), vehicle: saline 98 % of control and 106 % of control | dose: 12.5 mg/kg/injection, schedule: Q04DX003 (ip), vehicle: saline 91 % of control | dose: 25.0 mg/kg/injection, schedule: Q01DX001 (ip), vehicle: saline 105 % of control | dose: 25.0 mg/kg/injection, schedule: Q04DX002 (ip), vehicle: saline 106 % of control | dose: 25.0 mg/kg/injection, schedule: Q04DX003 (ip), vehicle: saline 96 % of control | dose: 50.0 mg/kg/injection, schedule: Q04DX002 (ip), vehicle: saline 104 % of control

NC(=S)/C(N)=N/Nc1ccc(Cl)cc1
inactive: [5] 92 % of control | dose: 12.5 mg/kg/injection, schedule: Q01DX009 (ip), vehicle: saline 108 % of control | [6] 92 % of control | dose: 25.0 mg/kg/injection, schedule: Q01DX009 (ip), vehicle: saline 120 % of control | dose: 50.0 mg/kg/injection, schedule: Q01DX009 (ip), vehicle: saline 103 % of control

NC1CCC1N (stereo unspecified)
inactive: [4] 104 % of control | dose: 200.0 mg/kg/injection, schedule: Q04DX003 (ip), vehicle: saline 108 % of control | dose: 400.0 mg/kg/injection, schedule: Q04DX003 (ip), vehicle: saline 98 % of control

CC(=O)OCC1OC(n2cnc3c(N)ncnc32)C(OC(C)=O)C1OC(C)=O (stereo unspecified)
inactive: dose: 50.0 mg/kg/injection, schedule: Q01DX001 (ip), vehicle: saline 100 % of control | [1] 110 % of control | dose: 100.0 mg/kg/injection, schedule: Q01DX005 (ip), vehicle: saline 93 % of control | [2] 94 % of control and 106 % of control | dose: 200.0 mg/kg/injection, schedule: Q01DX005 (ip), vehicle: saline 95 % of control | dose: 200.0 mg/kg/injection, schedule: Q01DX009 (ip), vehicle: saline 104 % of control | [3] 94 % of control | dose: 400.0 mg/kg/injection, schedule: Q01DX009 (ip), vehicle: saline 109 % of control

c1ccc([P+](CC[P+](c2ccccc2)(c2ccccc2)c2ccccc2)(c2ccccc2)c2ccccc2)cc1
inactive: dose: 2.5 mg/kg/injection, schedule: Q04DX003 (ip), vehicle: saline 96 % of control | dose: 5.0 mg/kg/injection, schedule: Q01DX009 (ip), vehicle: saline 96 % of control | dose: 5.0 mg/kg/injection, schedule: Q04DX003 (ip), vehicle: saline 98 % of control | dose: 10.0 mg/kg/injection, schedule: Q01DX009 (ip), vehicle: saline 96 % of control | dose: 10.0 mg/kg/injection, schedule: Q04DX003 (ip), vehicle: saline 95 % of control and 98 % of control | dose: 20.0 mg/kg/injection, schedule: Q01DX009 (ip), vehicle: saline 104 % of control

NC(=O)C1C(=O)OC2(CC2)C1c1ccccc1 (stereo unspecified)
inactive: [1] 86 % of control | [2] 93 % of control

Cn1/c(=N/N=C(N)N)ccc2ccccc21
inactive: dose: 15.0 mg/kg/injection, schedule: Q01DX Z (ip), vehicle: methylcellulose (MC) 100 % of control | dose: 30.0 mg/kg/injection, schedule: Q01DX Z (ip), vehicle: methylcellulose (MC) 108 % of control | dose: 30.0 mg/kg/injection, schedule: Q01DX Z (oral), vehicle: methylcellulose (MC) 95 % of control | dose: 60.0 mg/kg/injection, schedule: Q01DX Z (ip), vehicle: methylcellulose (MC) 107 % of control | dose: 60.0 mg/kg/injection, schedule: Q01DX Z (oral), vehicle: methylcellulose (MC) 101 % of control | dose: 120.0 mg/kg/injection, schedule: Q01DX Z (ip), vehicle: methylcellulose (MC) 103 % of control | dose: 120.0 mg/kg/injection, schedule: Q01DX Z (oral), vehicle: methylcellulose (MC) 97 % of control | dose: 240.0 mg/kg/injection, schedule: Q01DX Z (ip), vehicle: methylcellulose (MC) 98 % of control | dose: 240.0 mg/kg/injection, schedule: Q01DX Z (oral), vehicle: methylcellulose (MC) 95 % of control | dose: 375.0 mg/kg/injection, schedule: Q01DX Z (oral), vehicle: methylcellulose (MC) 95 % of control

OC(CNc1ccccc1)CN1CCCCC1 (stereo unspecified)
inactive: [4] 94 % of control
